The values below come from article PMC12175894 (Science Advances, 2025).

For experiment [1], the target named is T1, 5-HT1AR Y96^2.64A (Homo sapiens, UniProt P08908, Y96A).
T1 sequence (P08908 1-422 Y96A): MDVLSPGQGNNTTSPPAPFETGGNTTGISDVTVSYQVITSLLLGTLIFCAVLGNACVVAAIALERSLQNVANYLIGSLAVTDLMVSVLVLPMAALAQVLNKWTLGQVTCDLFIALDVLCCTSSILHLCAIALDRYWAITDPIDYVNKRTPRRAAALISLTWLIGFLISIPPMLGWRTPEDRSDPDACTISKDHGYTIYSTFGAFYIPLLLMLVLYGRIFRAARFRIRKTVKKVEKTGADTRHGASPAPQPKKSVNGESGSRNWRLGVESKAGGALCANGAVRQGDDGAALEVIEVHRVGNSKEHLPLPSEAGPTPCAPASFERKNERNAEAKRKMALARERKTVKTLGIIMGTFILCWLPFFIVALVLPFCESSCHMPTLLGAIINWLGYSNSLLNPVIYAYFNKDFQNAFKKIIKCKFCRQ
Description: Radioligand competition, displacement of [3H]WAY100635. The class given is binding. The settings on record: for decrease of affinity when Y96^2.64 and Q97^2.65 were replaced by alanine: Y96A and Q97A mutants vs WT.

Another experiment has as its target T2, 5-HT2AR (Homo sapiens, UniProt P28223).
T2 construct: whole cells for IP-One
In words: Radioligand competition, displacement of [3H]ketanserin. The class given is binding. (Displacement assays read how much labelled ligand stays bound in the presence of the test substance.)

Experiment [2] has as its target T3, 5-HT1AR F112^3.28W (Homo sapiens, UniProt P08908, F112W).
T3 sequence (P08908 1-422 F112W): T1 sequence (P08908 1-422 Y96A) with A96Y, F112W
In words: GloSensor cAMP assay in HEK293A cells. The class given is cell-based.

Experiment [3] addresses T4, 5-HT1AR F112^3.28W + M92^2.60F (Homo sapiens, UniProt P08908, F112W/M92F).
T4 sequence (P08908 1-422 M92F/F112W): T1 sequence (P08908 1-422 Y96A) with M92F, A96Y, F112W
In words: GloSensor cAMP assay in HEK293A cells. The class given is cell-based. (cAMP levels reflect the balance of adenylyl cyclase and phosphodiesterase activity.)

Experiment [4] addresses T3, 5-HT1AR F112^3.28W. Description: GloSensor inhibition of cAMP accumulation in HEK293AΔGs. The class given is cell-based. To be noted: for Emax: read-out: Emax [% ± SEM], inhibition of cAMP accumulation.
The target of experiment [5] is T1, 5-HT1AR Y96^2.64A. The experiment is described as above. In kind it is cell-based. The settings on record: for Emax: read-out: Emax [% ± SEM], inhibition of cAMP accumulation.
The next experiment addresses T5, 5-HT1AR Q97^2.65A (Homo sapiens, UniProt P08908, Q97A).
T5 sequence (P08908 1-422 Q97A): T1 sequence (P08908 1-422 Y96A) with A96Y, Q97A
The experiment is described as above. The settings on record: for Emax: read-out: Emax [% ± SEM], inhibition of cAMP accumulation. The class given is cell-based.

Experiment [6] concerns the target T1, 5-HT1AR Y96^2.64A. In words: GloSensor cAMP accumulation in HEK293AΔGi/o. In kind it is cell-based. To be noted: read-out: Emax [% ± SEM], cAMP accumulation.
Experiment [7] has as its system male C56BL/6 mice. Description: von Frey assay, hind paw mechanical thresholds. In kind it is in vivo, mouse. The settings on record: 10 mg/kg i.p., 30 min after injection.
The test system of experiment [8] is male C56BL/6 mice. In words: 50°C tail flick. In kind it is in vivo, mouse. The settings on record: 10 mg/kg i.p.
Experiment [9] concerns male C56BL/6 mice. Description: 52°C hot plate. The settings on record: wild-type mice, 10 mg/kg. In kind it is in vivo, mouse.
The test system of experiment [10] is male C56BL/6 mice. Description: SNI model of neuropathic pain. In kind it is in vivo, mouse.
In experiment [11] the target is T3, 5-HT1AR F112^3.28W. Description: β-arrestin 2 recruitment, enhanced bystander BRET in HEK293T with GRK2. To be noted: HEK-293T, read-out: Emax [% ± SEM], β-arrestin 2 recruitment.
The mark [12] stands for this setting: HEK293-A, read-out: Emax [%±SEM], inhibition of cAMP accumulation.
[13] abbreviates: HEK293-A; read-out: Emax [%±SEM], inhibition of cAMP accumulation.

Each structure is given as a SMILES string. Substitutions are numbered along the chain they refer to. Read-outs that look alike come from different tables or passages of the source. A value given as a limit tells only on which side of the number the result lay.

T2 sequence (P28223 whole entry): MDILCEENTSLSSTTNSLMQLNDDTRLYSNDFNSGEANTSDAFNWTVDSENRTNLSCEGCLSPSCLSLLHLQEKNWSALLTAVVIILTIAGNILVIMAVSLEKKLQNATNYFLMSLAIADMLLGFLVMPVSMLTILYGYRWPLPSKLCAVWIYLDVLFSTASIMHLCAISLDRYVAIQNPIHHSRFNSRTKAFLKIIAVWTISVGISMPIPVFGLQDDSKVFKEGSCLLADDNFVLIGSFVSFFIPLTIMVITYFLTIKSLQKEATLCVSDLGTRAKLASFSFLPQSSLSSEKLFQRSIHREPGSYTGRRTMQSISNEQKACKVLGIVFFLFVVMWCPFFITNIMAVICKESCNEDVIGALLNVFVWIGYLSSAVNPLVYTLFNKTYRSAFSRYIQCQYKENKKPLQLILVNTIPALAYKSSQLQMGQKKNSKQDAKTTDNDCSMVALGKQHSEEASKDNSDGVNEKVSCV

`COc1ccccc1OCCNCCCOc1ccc2c(c1)NC(=O)CO2` [ST171]: the Ki on 5-HT1AR Y96^2.64A [1] (5-HT1AR Y96A, HEK 293T membranes, read-out: Ki [nM ± SEM]) was 63 nM; on 5-HT2AR (5-HT2A, read-out: pKi (converted)) it was 260 nM; at 5-HT2AR (5-HT2AR, HEK 293T membranes, read-out: Ki [nM ± SEM]) it was 280 ± 30 nM. For the same compound, the “decrease of affinity when Y96^2.64 and Q97^2.65 were replaced by alanine” value on 5-HT1AR Y96^2.64A [1] is given as “more than 150 fold”. Also, the Emax (in general, the size of the effect at its maximum, as opposed to the concentration needed) at 5-HT1AR F112^3.28W [2] (setting [12]) is 77 ± 9%; in experiment [3] (setting [12]), 77 ± 5%; on 5-HT1AR F112^3.28W [4], 69 ± 8%; at 5-HT1AR Y96^2.64A [5], 76 ± 2%; on 5-HT1AR Q97^2.65A, 79 ± 6%; on 5-HT1AR Y96^2.64A [6], less than 5%. Moreover, the Emax at 5-HT1AR F112^3.28W [11] is less than 5%. Further, the EC50 (usually the concentration needed to bring the measured effect to its halfway point) at 5-HT1AR F112^3.28W [2] (HEK293A, GloSensor, F112W; read-out: EC50 left [nM±SEM], inhibition of cAMP accumulation) worked out at 1.7 ± 0.5 nM; in experiment [3] (HEK293A, GloSensor, F112W + M92F; read-out: EC50 left [nM±SEM], inhibition of cAMP accumulation), 1.7 ± 0.4 nM; on 5-HT1AR F112^3.28W [4] (HEK293AΔGs, F112W, read-out: EC50 [nM ± SEM], inhibition of cAMP accumulation), 2.2 ± 0.3 nM; on 5-HT1AR Y96^2.64A [5] (HEK293AΔGs, Y96A, read-out: EC50 [nM ± SEM], inhibition of cAMP accumulation), 14 ± 3.5 nM; at 5-HT1AR Q97^2.65A (HEK293AΔGs, Q97A, read-out: EC50 [nM ± SEM], inhibition of cAMP accumulation) it was 8 ± 0.9 nM. Besides, the “mechanical thresholds, von Frey” value with male C56BL/6 mice [7] is “significantly increasing mechanical thresholds”. Further, in the experiment on male C56BL/6 mice [8], the “response latency, 50°C tail flick” value is “antinociceptive”. Further, the “response latency, 52°C hot plate” value in the experiment on male C56BL/6 mice [9] is “antinociceptive”. The “mechanical thresholds of the injured hind paw, SNI model” value in the experiment with male C56BL/6 mice [10] (10 mg/kg intraperitoneal) was “significantly increased the mechanical thresholds”.
With `Cc1ccc(CNCC2(F)CCN(C(=O)c3ccc(F)c(Cl)c3)CC2)nc1` [befiradol, reference compound], the “decrease of affinity when Y96^2.64 and Q97^2.65 were replaced by alanine” value at 5-HT1AR Y96^2.64A [1] was 4.2- to 13.3 fold. The compound further returned a Ki on 5-HT2AR of 15000 nM. For the same compound, the Emax was determined as 96 ± 4% at 5-HT1AR F112^3.28W [2] (setting [13]); 92 ± 7% in experiment [3] (setting [13]); 95 ± 5% on 5-HT1AR F112^3.28W [4]; 104 ± 5% at 5-HT1AR Y96^2.64A [5]; 91 ± 7% at 5-HT1AR Q97^2.65A; 69 ± 5% on 5-HT1AR Y96^2.64A [6]. In addition, on 5-HT1AR F112^3.28W [11], the Emax was found to be 86 ± 3%. For the same compound, the “Esat [%±SEM]” value at 5-HT1AR F112^3.28W [2] (HEK293A, GloSensor, F112W) worked out at 90 ± 4%. Further, the “mechanical thresholds, von Frey” value in the experiment with male C56BL/6 mice [7] was “significantly increasing mechanical thresholds”. Moreover, the “response latency, 50°C tail flick” value in the experiment on male C56BL/6 mice [8] was “antinociceptive”. The “response latency, 52°C hot plate” value with male C56BL/6 mice [9] is given as “antinociceptive”. The “mechanical allodynia, neuropathic pain model” value in the experiment on male C56BL/6 mice [10] (lower, nonsedating doses (1 mg/kg)) is listed as “did not reverse the mechanical allodynia”.
